# Measured values reported in publication PMC9354638, “Targeting p21-activated kinase 4 (PAK4) with pyrazolo[3,4-d]pyrimidine derivative SPA7012 attenuates hepatic ischaemia-reperfusion injury in mice” (Journal of Enzyme Inhibition and Medicinal Chemistry, 2022).
# “Also recorded” adds a separate entry of the source.
# Assays:
# [1] = system: C57BL/6 male mice with hepatic I/R injury; assay: Model of partial hepatic I/R injury in mice; format: in vivo, mouse
# Description: Pathogen-free 8 to 10-week old C57BL/6 male mice (Orient Bio, Seoul, Korea) were kept under a 12-h light/dark cycle with controlled humidity of 50% at 22 °C, and had free access to food and water. Hepatic I/R injury was created using the following method.[15] Mice were anaesthetised with ketamine (100 mg/kg) and xylazine (10 mg/kg) by intraperitoneal injection. A midline incision was performed, and an atraumatic clip was placed across the portal vein, hepatic artery, and bile duct just above the right branch. Blood flow was interrupted to the left lateral and median lobes, which represent approximately 70% of the total blood supply to the liver. The liver was kept moist with a gauze soaked in saline, and body temperature was maintained at 37 °C with a warm blanket throughout ischaemia. After 60 min of partial hepatic ischaemia, the clip was removed to initiate reperfusion. The sham mice underwent the same operation without vascular occlusion. After the desired time period of reperfusion, the mice were euthanised by exsanguination under anaesthesia and serum samples were collected. The left lateral and median lobes of the liver were collected and stored at −80 °C until further analysis, or were immediately fixed in 10% formalin. All animal experiments were performed in accordance with the Guide for the Care and Use of Laboratory Animals published by the US National Institutes of Health (NIH Publication No. 85–23, revised 2011). The study protocol was approved by the Institutional Animal Care and Use Committee of Jeonbuk National University (permit number: JBNU-2019–00122).
# Alanine aminotransferase (ALT) and aspartate aminotransferase (AST) in serum (Asan Pharm, Seoul, Korea), glutathione (GSH, Arbour Assays, Ann Arbour, MI, USA), malondialdehyde (MDA, ab118970, Abcam, Cambridge, UK) in liver tissues, and lactate dehydrogenase (LDH, Biovision, Milpitas, CA, USA) in culture medium were analysed using specific kits. Serum levels of IL-1β, IL-6, TNF-α, and CCL-2 were detected using ELISA kits (all from Invitrogen).
# Total RNA was extracted from frozen liver tissues or primary hepatocytes using TRIzol reagent (Invitrogen). RNA was treated with isopropanol, dried using 70% ethanol, and dissolved in diethyl pyrocarbonate-treated distilled water. First-strand cDNA was generated using the random hexamer primer provided in the first-strand cDNA synthesis kit (Applied Biosystems, Foster City, CA, USA). Specific primers were designed using PrimerBank (https://pga.mgh.harvard.edu/primerbank, Table 1). qPCR reactions were performed in a final volume of 10μ L containing 10 ng reverse-transcribed total RNA, 200 nM forward and reverse primers, and PCR master mixture. qPCR was performed in 384-well plates using an ABI Prism™ 7900HT Sequence Detection System (Applied Biosystems).
# Nuclear and cytoplasmic fractions were prepared using the NE-PER Nuclear and Cytoplasmic Extraction kit (Thermo Fisher Scientific, Waltham, MA, USA). Tissue homogenates or cell lysates (15 μg) were separated by 6–14% SDS-PAGE and transferred to PVDF membranes. After blocking with 5% skim milk, blots were probed with primary antibodies against: PAK4 (G222), p-PAK4 (S474), p-IKKβ (S176/180), p-IκBα (S32), p-p65 (S536), cleaved caspase-3 (Asp175), Bax (Cell Signalling Technology, Beverly, MA, USA), GAPDH (A531), lamin B1(L75), Bcl2(P65), NQO1 (F252) (Bioworld Technology, St Louis Park, MN, USA), NF-κB p65 (C-20), IKBα (H-4), IKKβ (10A9B6) (Santa Cruz Biotechnology, Dallas, TX, USA), Nrf2 (Proteintech, Rosemont, IL, USA), HO-1 (Enzo Life Sciences, Farmingdale, New York, USA), and p-Thr (Merck KGaA, Darmstadt, Germany). For co-immunoprecipitations, 600 μg protein was incubated with anti-Nrf2 antibodies (Proteintech, Sankt Leon-Rot, Germany) overnight at 4 °C followed by protein G agarose for 2 h at 4 °C. Blots were probed with antibodies against PAK4, Nrf2, or p-Thr. Immunoreactive bands were detected with a Las-4000 imager (GE Healthcare Life Science, Pittsburgh, PA, USA). […]
# [2] = system: Nrf2 transcriptional activity (ARE); assay: Nrf2 reporter gene assay (ARE luciferase) in HEK293T cells; format: cell-based, human; conditions: 24 h transfection
# Description: The human embryonic kidney cell line HEK293T was obtained from the American Type Culture Collection (Manassas, VA, USA). For the Nrf2 reporter gene assay, 1 μg of a plasmid containing a promoter with an ARE driving luciferase expression was used. Exogenous proteins were expressed by transfecting HEK293T cells with 1 μg of Nrf2 and PAK4 with Lipofectamine 3000 (Invitrogen, Carlsbad, CA, USA). Luciferase activity was measured using a Dual-Luciferase Reporter Assay (Promega, Madison, WI, USA) by Lumat LB 9507 (Berthold, Bad Wildbad, Germany).
# [3] = 50 mg/kg intraperitoneal before and during I/R, 1 h ischaemia, 6 h or 24 h reperfusion, vs I/R group
compound,measurement,setting,value
"Cc1nn(-c2cccc(C#CC3(O)CCCCC3)c2)c2ncnc(N)c12 [Compound 14b, 3-(4-Amino-3-methylpyrazolo[3,4-d]pyrimidin-1-yl)phenylethynylcyclohexan-1-ol]",Serum ALT level,[1]; [3],significantly decreased
same,Serum AST level,[1]; [3],significantly decreased
same,"Inflammatory cell infiltration (F4/80-positive macrophages, Ly6G-positive neutrophils) in liver","[1]; 50 mg/kg, 24 h after reperfusion, listed as SPA7012",decreased; also recorded: drastic reduction
same,"Cytokine production (TNF-α, IL-1β, IL-6, CCL-2; serum protein and liver mRNA)","[1]; 50 mg/kg, I/R injured mice",decreased
same,Phosphorylation levels of IKKβ and p65 in liver,"[1]; 50 mg/kg, Western blotting",substantially decreased
same,Protein levels of IκBα in liver,"[1]; 50 mg/kg, Western blotting",increased
same,Nuclear level of Nrf2 in I/R injured liver tissues,"[1]; 50 mg/kg, Western blotting of nuclear extracts, listed as SPA7012",considerably increased
same,4-HNE-positive cells in liver tissues,"[1]; 50 mg/kg, vs I/R group",significantly lower
same,Area of necrosis in liver (H&E),"[1]; 50 mg/kg, vs I/R group",significantly smaller
same,Hepatic levels of GSH,"[1]; 50 mg/kg, vs I/R group",significantly higher
same,MDA level,"[1]; 50 mg/kg, vs I/R group",significantly lower
same,TUNEL-positive apoptotic cells in liver tissues,"[1]; 50 mg/kg, vs I/R group",significant reduction
same,"Total- and phospho-protein levels of PPARγ, PTEN, Akt, and GSK-3β","[1]; following SPA7012 treatment, data not shown",no changes
same,Nrf2 transcriptional activity (ARE luciferase activity),[2],increased
